Broadly, the pIC50 is −log10 of the IC50, conventionally taken in molar units.

This note sets out measurements from patent publication US7419969B2 (Bristol-Myers Squibb Company, priority 2004, dated 2008).

pIC50: −log10 of the molar value.

In this experiment the target is T1, HIV-integrase (Human immunodeficiency virus type 1 group M subtype B, UniProt P04585).
T1 construct: Recombinant integrase (0.26 ng) was incubated with the beads
Nature of the experiment: in-vitro activity against HIV-integrase (HIV Integrase Inhibition, SPA bead assay). Conditions: Table 1; recombinant integrase, activity class. Format: biochemical. The procedure: To evaluate in-vitro activity against HIV-integrase, 5 pmole of biotin labeled substrate DNA was bound to 100 μg of Streptavidin coated PVT SPA beads (Amersham Pharmacia Biotech). Recombinant integrase (0.26 ng) was incubated with the beads for 90 min at 37° C. Unbound enzyme was removed by washing the complex followed by addition of inhibitors and […] of P33 labeled target DNA. The reaction was stopped by adding EDTA to a final concentration of 10 mM. Samples were counted in TopCountNXT (Packard) and the CPM was used as a measure of integration. The reaction condition was as described in Engelman, A. and Craigie, R. J. Vitrol. 1996, 69, 5908. The sequences of substrate and target DNA were described in Nucleic Acid Research 1994, 22, 1121.
Take `CN(C)S(=O)(=O)c1cc(F)ccc1CNC(=O)c1nc2n(c(=O)c1O)CCOC21CCCC1` [Example 28, N-[[(2-(dimethylamino)sulfonyl]-4-fluorophenyl)methyl]-6′,7′-dihydro-3′-hydroxy-4′-oxo-spiro[cyclopentane-1,9′(4′H)-pyrimido[2,1-c][1,4]oxazine]-2′-carboxamide]: the pIC50 is 8.00 to 9.00.

For `O=C(NCc1cc(F)ccc1-n1cncn1)c1nc2n(c(=O)c1O)CCOC21CCCC1` [Example 29, N-[[5-fluoro-2-(1H-1,2,4-triazol-1-yl)phenyl]methyl]-6′,7′-dihydro-3′-hydroxy-4′-oxo-spiro[cyclopentane-1,9′(4′H)-pyrimido[2,1-c][1,4]oxazine]-2′-carboxamide], the pIC50 was 8.00 to 9.00.

In the case of `O=C(NCCc1ccc(F)cc1)c1nc2n(c(=O)c1O)CCOC21CCCC1` [Example 30, N-[2-(4-fluorophenyl)ethyl]-6′,7′-dihydro-3′-hydroxy-4′-oxo-spiro[cyclopentane-1,9′(4H)-pyrimido[2,1-c][1,4]oxazine]-2′-carboxamide], the pIC50 is 7.00 to 8.00.

Turning to `O=C(NCCCc1ccc(F)cc1)c1nc2n(c(=O)c1O)CCOC21CCCC1` [Example 31, N-[3-(4-fluorophenyl)propyl]-6′,7′-dihydro-3′-hydroxy-4′-oxo-spiro[cyclopentane-1,9′(4′H)-pyrimido[2,1-c][1,4]oxazine]-2′-carboxamide], the negative logarithm of the IC50 (pIC50) is 7.00 to 8.00.

As for `Cc1ncnn1-c1cc(F)ccc1CNC(=O)c1nc2n(c(=O)c1O)CCOC21CCCC1` [Example 32, N-[[4-fluoro-2-(5-methyl-1H-1,2,4-triazol-1-yl)phenyl]methyl]-6′,7′-dihydro-3′-hydroxy-4′-oxo-spiro[cyclopentane-1,9′(4′H)-pyrimido[2,1-c][1,4]oxazine]-2′-carboxamide], the pIC50 is 8.00 to 9.00.

With `O=C(NCc1ccccc1-n1cncn1)c1nc2n(c(=O)c1O)CCOC21CCCC1` [Example 33, 6′,7′-dihydro-3′-hydroxy-4′-oxo-N-[[2-(1H-1,2,4-triazol-1-yl)phenyl]methyl]-spiro[cyclopentane-1,9′(4′H)-pyrimido[2,1-c][1,4]oxazine]-2′-carboxamide], the negative-log IC50 (pIC50) was 8.00 to 9.00.

As for `O=C(NCc1ccc(F)cc1N1CCCCS1(=O)=O)c1nc2n(c(=O)c1O)CCOC21CCCC1` [Example 34, N-[[4-fluoro-2-(tetrahydro-1,1-dioxido-2H-1,2-thiazin-2-yl)phenyl]methyl]-6′,7′-dihydro-3′-hydroxy-4′-oxo-spiro[cyclopentane-1,9′(4′H)-pyrimido[2,1-c][1,4]oxazine]-2′-carboxamide], the pIC50 is 8.00 to 9.00.

`O=C(NCc1ccccc1N1CCCCS1(=O)=O)c1nc2n(c(=O)c1O)CCOC21CCCC1` [Example 35, 6′,7′-dihydro-3′-hydroxy-4′-oxo-N-[[2-(tetrahydro-1,1-dioxido-2H-1,2-thiazin-2-yl)phenyl]methyl]-spiro[cyclopentane-1,9′(4′H)-pyrimido[2,1-c][1,4]oxazine]-2′-carboxamide]: the negative logarithm of the IC50 (pIC50) is 7.00 to 8.00.

In the case of `O=C(NCc1ccc(F)cc1)c1nc2n(c(=O)c1O)CCOC21CCOC1` (stereo not drawn) [Example 36, N-[(4-fluorophenyl)methyl]-4,5,6′,7′-tetrahydro-3′-hydroxy-4′-oxo-spiro[furan-3(2H),9′(4′H)-pyrimido[2,1-c][1,4]oxazine]-2′-carboxamide], the negative-log IC50 (pIC50) was 8.00 to 9.00.

For `Cc1cc(CNC(=O)c2nc3n(c(=O)c2O)CCOC32CCOC2)ccc1F` (stereo not drawn) [Example 37, N-[(4-fluoro-3-methylphenyl)methyl]-4,5,6′,7′-tetrahydro-3′-hydroxy-4′-oxo-spiro[furan-3(2H),9′(4′H)-pyrimido[2,1-c][1,4]oxazine]-2′-carboxamide], the pIC50 is 8.00 to 9.00.

On to `O=C(NCc1ccc(F)cc1-n1cncn1)c1nc2n(c(=O)c1O)CCOC21CCOC1` (stereo not drawn) [Example 38], for which the negative logarithm of the IC50 (pIC50) is 8.00 to 9.00.

`CSc1cc(F)ccc1CNC(=O)c1nc2n(c(=O)c1O)CCOC21CCOC1` (stereo not drawn) [Example 39, N-[[4-fluoro-2-(methylthio)phenyl]methyl]-4,5,6′,7′-tetrahydro-3′-hydroxy-4′-oxo-spiro[furan-3(2H),9′(4′H)-pyrimido[2,1-c][1,4]oxazine]-2′-carboxamide]: the pIC50 was 8.00 to 9.00.

Regarding `O=C(NCc1ccc(F)cc1)c1nc2n(c(=O)c1O)CCOC21CCOCC1` [Example 40, N-[(4-fluorophenyl)methyl]-2,3,5,6,6′,7′-hexahydro-3′-hydroxy-4′-oxo-spiro[4H-pyran-4,9′(4′H)-pyrimido[2,1-c][1,4]oxazine]-2′-carboxamide], the pIC50 is 8.00 to 9.00.

For `O=C(NCc1ccc(F)cc1-n1cncn1)c1nc2n(c(=O)c1O)CCOC21CCOCC1` [Example 41], the negative logarithm of the IC50 (pIC50) was 8.00 to 9.00.

Regarding `O=C(NCc1ccc(F)cc1N1CCCCS1(=O)=O)c1nc2n(c(=O)c1O)CCOC21CCOCC1` [Example 42, N-[[4-fluoro-2-(tetrahydro-1,1-dioxido-2H-1,2-thiazin-2-yl)phenyl]methyl]-2,3,5,6,6′,7′-hexahydro-3′-hydroxy-4′-oxo-spiro[4H-pyran-4,9′(4′H)-pyrimido[2,1-c][1,4]oxazine]-2′-carboxamide], the pIC50 is 8.00 to 9.00.

For `O=C(NCc1ccccc1N1CCCCS1(=O)=O)c1nc2n(c(=O)c1O)CCOC21CCOCC1` [Example 43, N-[[2-(tetrahydro-1,1-dioxido-2H-1,2-thiazin-2-yl)phenyl]methyl]-2,3,5,6,6′,7′-hexahydro-3′-hydroxy-4′-oxo-spiro[4H-pyran-4,9′(4′H)-pyrimido[2,1-c][1,4]oxazine]-2′-carboxamide], the negative logarithm of the IC50 (pIC50) is 7.00 to 8.00.

On to `CS(=O)(=O)c1cc(F)ccc1CNC(=O)c1nc2n(c(=O)c1O)CCOC21CCOCC1` [Example 44, N-[[4-fluoro-2-(methylsulfonyl)phenyl]methyl]-2,3,5,6,6′,7′-hexahydro-3′-hydroxy-4′-oxo-spiro[4H-pyran-4,9′(4′H)-pyrimido[2,1-c][1,4]oxazine]-2′-carboxamide], for which the negative logarithm of the IC50 (pIC50) is 8.00 to 9.00.

With `Cc1cc(CNC(=O)c2nc3n(c(=O)c2O)CCOC32CCOCC2)ccc1F` [Example 45, N-[(4-fluoro-3-methylphenyl)methyl]-2,3,5,6,6′,7′-hexahydro-3′-hydroxy-4′-oxo-spiro[4H-pyran-4,9′(4′H)-pyrimido[2,1-c][1,4]oxazine]-2′-carboxamide], the negative-log IC50 (pIC50) is 8.00 to 9.00.

Take `COc1ccc(CNC(=O)c2nc3n(c(=O)c2O)CCOC32CCOCC2)c(OC)c1` [Example 46, N-[(2,4-dimethoxyphenyl)methyl]-2,3,5,6,6′,7′-hexahydro-3′-hydroxy-4′-oxo-spiro[4H-pyran-4,9′(4′H)-pyrimido[2,1-c][1,4]oxazine]-2′-carboxamide]: the pIC50 is 7.00 to 8.00.

For the molecule `CN(C)S(=O)(=O)c1cc(F)ccc1CNC(=O)c1nc2n(c(=O)c1O)CCOC21CCOCC1` [Example 47, N-[[2-[(dimethylamino)sulfonyl]-4-fluorophenyl]methyl]-2,3,5,6,6′,7′-hexahydro-3′-hydroxy-4′-oxo-spiro[4H-pyran-4,9′(4′H)-pyrimido[2,1-c][1,4]oxazine]-2′-carboxamide], the negative logarithm of the IC50 (pIC50) was 7.00 to 8.00.

On to `Cc1ccc(CNC(=O)c2nc3n(c(=O)c2O)CCOC32CCOCC2)cc1C` [Example 48, N-[(3,4-dimethylphenyl)methyl]-2,3,5,6,6′,7′-hexahydro-3′-hydroxy-4′-oxo-spiro[4H-pyran-4,9′(4′H)-pyrimido[2,1-c][1,4]oxazine]-2′-carboxamide], for which the negative-log IC50 (pIC50) was 8.00 to 9.00.

Turning to `Cc1ncnn1-c1cc(F)ccc1CNC(=O)c1nc2n(c(=O)c1O)CCOC21CCOCC1` [Example 49, N-[[4-fluoro-2-(5-methyl-1H-1,2,4-triazol-1-yl)phenyl]methyl]-2,3,5,6,6′, 7-hexahydro-3′-hydroxy-4′-oxo-spiro[4H-pyran-4,9′(4′H)-pyrimido[2,1-c][1,4]oxazine]-2′-carboxamide], the negative-log IC50 (pIC50) was 8.00 to 9.00.

With `Cc1ncn(-c2cc(F)ccc2CNC(=O)c2nc3n(c(=O)c2O)CCOC32CCOCC2)n1` [Example 50, N-[[4-fluoro-2-(3-methyl-1H-1,2,4-triazol-1-yl)phenyl]methyl]-2,3,5,6,6′,7′-hexahydro-3′-hydroxy-4′-oxo-spiro[4H-pyran-4,9′(4′H)-pyrimido[2,1-c][1,4]oxazine]-2′-carboxamide], the pIC50 was 8.00 to 9.00.

Turning to `O=C(NCc1ccc(F)cc1-n1cncn1)c1nc2n(c(=O)c1O)CCOC21CCC1` [Example 51, N-[[4-fluoro-2-(1H-1,2,4-triazol-1-yl)phenyl]methyl]-6′,7′-dihydro-3′-hydroxy-4′-oxo-spiro[cyclobutane-1,9′(4′H)-pyrimido[2,1-c][1,4]oxazine]-2′-carboxamide], the negative-log IC50 (pIC50) is 8.00 to 9.00.

On to `O=C(NCc1ccc(F)cc1)c1nc2n(c(=O)c1O)CCOC21CCC1` [Example 52, N-[(4-fluorophenyl)methyl]-6′,7′-dihydro-3′-hydroxy-4′-oxo-spiro[cyclobutane-1,9′(4′H)-pyrimido[2,1-c][1,4]oxazine]-2′-carboxamide], for which the pIC50 was 8.00 to 9.00.

Consider `CS(=O)(=O)c1cc(F)ccc1CNC(=O)c1nc2n(c(=O)c1O)CCOC21CCC1` [Example 53, N-[[4-fluoro-2-(methylsulfonyl)phenyl]methyl]-6′,7′-dihydro-3′-hydroxy-4′-oxo-spiro[cyclobutane-1,9′(4′H)-pyrimido[2,1-c][1,4]oxazine]-2′-carboxamide], for which the negative logarithm of the IC50 (pIC50) is 8.00 to 9.00.

Take `CN(C)S(=O)(=O)c1cc(F)ccc1CNC(=O)c1nc2n(c(=O)c1O)CCOC21CCC1` [Example 54, N-[[2-[(dimethylamino)sulfonyl]-4-fluorophenyl]methyl]-6′,7′-dihydro-3′-hydroxy-4′-oxo-spiro[cyclobutane-1,9′(4′H)-pyrimido[2,1-c][1,4]oxazine]-2′-carboxamide]: the negative-log IC50 (pIC50) is 8.00 to 9.00.
